pIC50: −log10 of the molar value. Several values for one entry are separate records, joined by “and”; a condition that tells them apart may be missing. Equal values may be shown once.
Key:
[1] = target: Ataxin-3 (Homo sapiens, UniProt P54252); test: In vitro ubiquitin-AMC assay with GST-Ataxin-3; assay type: biochemical; conditions: incubated with GST-Ataxin-3 at 37 °C for 30 min
Description: (§1) (means ± SD, n=3). […] (means ± SD, n=3). […] (means ± SD, n=3). […] (means ± SD, n=3).

[2] = system: NCI-H1299 cells; test: Apoptosis, IB of cell lysates after 72 h; assay type: cell-based; conditions: series of concentrations
Description: as §1

[3] = system: A549 harboring LKB1-null/WT/3KR; test: Proliferation assay in cells harboring LKB1-null/WT/3KR; assay type: cell-based; conditions: series of concentrations, 72 h
Description: (§2) (a) Proliferation assay in LKB1-null cells (means ± SD, n=3). […] Red dashed line indicates 50% of cell survival. (b) Proliferation assay in A549 harboring LKB1-null/WT/3KR (Top) and immunoblotting analysis showing the overexpression efficiency of LKB1-WT/3KR (Bottom). […] (means ± SD, n=3). (c) Representative images of in situ TUNEL assay of cancer cells inside tumor mass with or without JOSD2 inhibitor treatment. (means ± SD, n=3). n.s: P > 0.05; *P < 0.05; **P < 0.01.

[4] = system: PC-9 cells; test: Proliferation assay (SRB), 72 h; assay type: cell-based; conditions: Homo sapiens, LKB1-WT
Method: (§3) The indicated cell lines were treated with indicated compounds at a series of concentrations for 72 h, followed by cell proliferation assay and colony formation assay. Black dashed line indicates 50% of cell survival.
(§4) For cell proliferation assay, cells infected with lentiviruses packaged indicated plasmids were seeded indicated number cells per well in 96-well plates. Cell number (absorbance) was then estimated by the sulforhodamine B (SRB) (Sigma-Aldrich, #230162) assay and the absorbance of the individual wells was determined at the optical density of 515 nm. For colony formation assay, cells infected with lentiviruses packaged indicated plasmids were seeded indicated number cells per well in 6-well plates. Two weeks later, cells were stained with SRB and the numbers of colonies having more than 50 cells were counted.

[5] = system: NCI-H358 cells; test: Proliferation assay (SRB), 72 h; assay type: cell-based; conditions: Homo sapiens, LKB1-WT
Method: as §3, §4

[6] = system: NCI-H1299 cells; test: Proliferation assay (SRB), 72 h; assay type: cell-based; conditions: Homo sapiens, LKB1-WT
Method: as §3, §4

[7] = system: NCI-H292 cells; test: Proliferation assay (SRB), 72 h; assay type: cell-based; conditions: Homo sapiens, LKB1-WT
Method: as §3, §4

[8] = target: T1, Ataxin-3L (Homo sapiens, UniProt Q9H3M9); test: In vitro ubiquitin-AMC assay with GST-Ataxin-3L; assay type: biochemical; conditions: incubated with GST-Ataxin-3L at 37 °C for 30 min
T1 sequence (Q9H3M9 1-355): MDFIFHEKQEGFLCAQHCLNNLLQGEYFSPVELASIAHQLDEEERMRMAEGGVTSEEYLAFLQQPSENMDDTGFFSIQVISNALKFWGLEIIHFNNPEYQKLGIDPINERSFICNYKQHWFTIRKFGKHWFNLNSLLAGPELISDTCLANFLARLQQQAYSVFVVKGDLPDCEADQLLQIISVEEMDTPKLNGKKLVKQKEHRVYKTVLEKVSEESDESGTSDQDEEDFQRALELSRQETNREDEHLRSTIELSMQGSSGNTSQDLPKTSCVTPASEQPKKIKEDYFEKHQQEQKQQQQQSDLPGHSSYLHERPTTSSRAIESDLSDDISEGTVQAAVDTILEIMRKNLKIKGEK
Description: as §1

[9] = system: NCI-H1299 xenografted tumors; test: Antitumor activity of HY041004 in vivo; set-up: species or system BALB/c-Nude mice; conditions: for Tumor Weight: at the endpoint; for T/C: RTVtreated / RTVcontrol
Method: as §3
Female BALB/c-Nude mice (4-5 weeks) were subcutaneously transplanted with 1 mm^3 NCI-H1299 xenograft tumor mass. […] The tumor volume was measured by a caliper every 2 days as soon as the tumor reached a palpable size. Relative tumor volume (RTV) was calculated by (RTV=TVt / TV0, where TV0 is the tumor volume measured when starting treatment). The T/C value was calculated as RTVtreated / RTVcontrol.

[10] = system: NCI-H1299 xenografted tumors; test: TUNEL assay in xenografted tumors; assay type: in vivo, BALB/c-Nude mice; conditions: oral administration, in situ TUNEL
Description: Apoptosis in xenografted tumors was detected by a TUNEL assay kit (Beyotime Biotechnology, Shanghai, China), according to the manufacturer's protocols. Images were captured by a fluorescence microscope.
as §2

[11] = target: JOSD1 (Homo sapiens, UniProt Q15040); test: In vitro ubiquitin-AMC assay with GST-JOSD1; assay type: biochemical; conditions: incubated with GST-JOSD1 at 37 °C for 30 min
Description: as §1

[12] = system: NCI-H23 cells; test: Proliferation assay in LKB1-null cells, 72 h; assay type: cell-based; conditions: Homo sapiens
Method: as §4, §2

[13] = system: NCI-H1395 cells; test: Proliferation assay in LKB1-null cells, 72 h; assay type: cell-based; conditions: Homo sapiens
Method: as §4, §2

[14] = system: NCI-H460 cells; test: Proliferation assay in LKB1-null cells, 72 h; assay type: cell-based; conditions: Homo sapiens
Method: as §4, §2

[15] = system: NCI-H838 cells; test: Proliferation assay in LKB1-null cells, 72 h; assay type: cell-based; conditions: Homo sapiens
Method: as §4, §2

[16] = system: A549 cells; test: Proliferation assay in LKB1-null cells, 72 h; assay type: cell-based; conditions: Homo sapiens
Method: as §4, §2

[17] = system: LKB1-null NSCLC cell lines; test: Proliferation assay, panel of five LKB1-null cell lines; assay type: cell-based; conditions: 72 h
Method: as §4, §2

[18] = system: LKB1-WT NSCLC cell lines; test: Proliferation assay, panel of LKB1-WT cell lines; assay type: cell-based; conditions: average of four LKB1-WT cell lines, 72 h
Method: as §3, §4

Ataxin-3, sequence (P54252 whole entry): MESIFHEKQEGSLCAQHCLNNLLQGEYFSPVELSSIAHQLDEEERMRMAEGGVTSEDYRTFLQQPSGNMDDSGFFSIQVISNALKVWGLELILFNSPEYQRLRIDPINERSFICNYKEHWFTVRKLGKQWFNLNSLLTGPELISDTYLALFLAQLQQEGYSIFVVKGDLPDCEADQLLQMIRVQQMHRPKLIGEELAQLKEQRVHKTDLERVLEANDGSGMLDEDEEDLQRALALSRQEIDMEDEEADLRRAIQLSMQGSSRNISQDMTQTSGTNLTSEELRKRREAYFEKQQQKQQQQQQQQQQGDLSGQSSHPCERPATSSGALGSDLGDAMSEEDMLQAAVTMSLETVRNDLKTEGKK

melting point: 172 to 174 °C | IC50 [4]: 0.12 µM | IC50 [5]: 0.13 µM | IC50 [6]: 0.1 µM | IC50 [7]: 0.14 µM | pIC50 [11]: 6.33 | IC50 [12]: 0.73 µM | IC50 [13]: 0.46 µM | IC50 [14]: 0.24 µM | IC50 [15]: 0.72 µM | IC50 [16]: 0.46 µM
SMILES: O=C1c2ccncc2C(=O)c2c1nnn2Cc1cc(F)cc(Cl)c1 [HY041004, 3-(3-chloro-5-fluorobenzyl)-3H-[1,2,3] triazolo[4,5-g]isoquinoline-4,9-dione]
pIC50 [1]: 5.27 | Cell apoptosis [2]: induced cell apoptosis in a concentration-dependent manner | Anti-proliferative effect upon exogenous introduction of LKB1-WT, but not 3KR [3]: strengthen the anti-proliferative effect | pIC50 [8]: 4.89 | Tumor Weight ([9]; 50 mg/kg orally twice daily): 1.181 g and 1.18 ± 0.49 g | T/C ([9]; 50 mg/kg orally twice daily): 64.71% | Tumor Weight ([9]; 100 mg/kg orally twice daily): 0.901 g and 0.90 ± 0.23 g | T/C ([9]; 100 mg/kg orally twice daily): 43.88% | Intratumor cell apoptosis [10]: induced intratumor cell apoptosis | IC50 ([17]; average of five LKB1-null cell lines): 0.52 µM | Susceptibility of LKB1-null cell lines ([17]; compared with LKB1 wild-type NSCLC cell lines): less than that in LKB1 wild-type NSCLC cell lines | IC50 [18]: 0.122 µM
